Assay results from PubChem BioAssay AID330 (DTP/NCI, 2004).
Values joined by “and” are separate entries in the source; they are usually repeats but may differ in a detail not shown here. Equal entries are not always repeated. Inconclusive results and toxic doses are left out. Rule for the calls: active = survival T/C of 150% or more; inactive = T/C below 125% in these data.

Test system: P388 leukemia ip, CD2F1 mice, survival T/C
Assay: NCI In Vivo Anticancer Drug Screen. Data for tumor model P388 Leukemia (intraperitoneal) in CD2F1 (CDF1) mice
Settings: endpoint: median survival time, higher = longer survival
Summary of the method: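 Mice carrying the transplanted tumor received test compound or vehicle. Survival was recorded in each group, and the value is the treated-group measurement divided by that of the vehicle-treated control group.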

[1] = dose: 100.0 mg/kg/injection, schedule: Q04DX002 (ip), vehicle: Klucel (hydroxypropylcellulose) (HPC)
[2] = dose: 50.0 mg/kg/injection, schedule: Q01DX005 (ip), vehicle: Klucel (hydroxypropylcellulose) (HPC)
[3] = dose: 100.0 mg/kg/injection, schedule: Q01DX005 (ip), vehicle: Klucel (hydroxypropylcellulose) (HPC)
[4] = dose: 200.0 mg/kg/injection, schedule: Q01DX005 (ip), vehicle: Klucel (hydroxypropylcellulose) (HPC)
[5] = dose: 50.0 mg/kg/injection, schedule: Q01DX005 (ip), vehicle: saline
[6] = dose: 120.0 mg/kg/injection, schedule: Q01DX005 (ip), vehicle: saline with Tween-80
[7] = dose: 240.0 mg/kg/injection, schedule: Q01DX005 (ip), vehicle: saline with Tween-80

Measured: T/C

C=Cc1nc(=O)[nH]c(=O)[nH]1
inactive: [1] 97 % of control | dose: 100.0 mg/kg/injection, schedule: Q04DX002 (ip), vehicle: saline 101 % of control | dose: 200.0 mg/kg/injection, schedule: Q04DX002 (ip), vehicle: Klucel (hydroxypropylcellulose) (HPC) 91 % of control | dose: 200.0 mg/kg/injection, schedule: Q04DX002 (ip), vehicle: saline 108 % of control | dose: 400.0 mg/kg/injection, schedule: Q04DX002 (ip), vehicle: Klucel (hydroxypropylcellulose) (HPC) 97 % of control | dose: 400.0 mg/kg/injection, schedule: Q04DX002 (ip), vehicle: saline 98 % of control

Cc1c2cnccc2c(C)c2c1c1ccccc1n2CCCCCCCCCCn1c2ccccc2c2c(C)c3cnccc3c(C)c21
inactive: dose: 25.0 mg/kg/injection, schedule: Q04DX002 (ip), vehicle: saline with Tween-80 98 % of control | dose: 50.0 mg/kg/injection, schedule: Q04DX002 (ip), vehicle: saline with Tween-80 92 % of control | dose: 100.0 mg/kg/injection, schedule: Q04DX002 (ip), vehicle: saline with Tween-80 89 % of control

O=c1c2oc3ccccc3c2cnn1CCl
inactive: [2] 103 % of control | [3] 103 % of control | [4] 96 % of control

C#CCN1CCCCC1
inactive: dose: 12.5 mg/kg/injection, schedule: Q01DX005 (ip), vehicle: saline 105 % of control | dose: 25.0 mg/kg/injection, schedule: Q01DX005 (ip), vehicle: saline 100 % of control | [5] 100 % of control and 107 % of control

CC12CC(C(O)(C(F)(F)F)C(F)(F)F)C(=O)C=C1CCC1C2CCC2(C)C(C(=O)CC(O)(C(F)(F)F)C(F)(F)F)CCC12 (stereo not given)
inactive: dose: 75.0 mg/kg/injection, schedule: Q01DX001 (sc), vehicle: steriod suspending solution 104 % of control | dose: 150.0 mg/kg/injection, schedule: Q01DX001 (sc), vehicle: steriod suspending solution 122 % of control | dose: 300.0 mg/kg/injection, schedule: Q01DX001 (sc), vehicle: steriod suspending solution 100 % of control

O=C1NN2CCCN=C2c2ncccc21
inactive: dose: 60.0 mg/kg/injection, schedule: Q01DX005 (ip), vehicle: saline with Tween-80 104 % of control | [6] 103 % of control | [7] 108 % of control

CN(C)c1ccc(C(=O)C2(Cl)CCCCC2)cc1
inactive: dose: 100.0 mg/kg/injection, schedule: Q01DX001 (ip), vehicle: Klucel (hydroxypropylcellulose) (HPC) 97 % of control | dose: 200.0 mg/kg/injection, schedule: Q01DX001 (ip), vehicle: Klucel (hydroxypropylcellulose) (HPC) 100 % of control | dose: 400.0 mg/kg/injection, schedule: Q01DX001 (ip), vehicle: Klucel (hydroxypropylcellulose) (HPC) 96 % of control

CCOC(=O)C(=O)C1Cc2c(C)cc3cnc(OCC)cc3c2C1=O (stereo not given)
inactive: dose: 12.5 mg/kg/injection, schedule: Q01DX009 (ip), vehicle: distilled water + Tween-80 92 % of control | dose: 25.0 mg/kg/injection, schedule: Q01DX009 (ip), vehicle: distilled water + Tween-80 89 % of control | dose: 100.0 mg/kg/injection, schedule: Q01DX009 (ip), vehicle: distilled water + Tween-80 92 % of control | dose: 200.0 mg/kg/injection, schedule: Q01DX009 (ip), vehicle: distilled water + Tween-80 92 % of control

Cc1c(C)[n+](=O)c2ccccc2n1[O-]
inactive: [5] 103 % of control | dose: 100.0 mg/kg/injection, schedule: Q01DX005 (ip), vehicle: saline 108 % of control | dose: 200.0 mg/kg/injection, schedule: Q01DX005 (ip), vehicle: saline 100 % of control

CC(C)(C)c1cc(C/C=C/c2ccccc2)c(O)c(C(C)(C)C)c1
inactive: dose: 2.5 mg/kg/injection, schedule: Q01DX009 (ip), vehicle: saline with Tween-80 90 % of control | dose: 5.0 mg/kg/injection, schedule: Q01DX009 (ip), vehicle: saline with Tween-80 99 % of control | dose: 10.0 mg/kg/injection, schedule: Q01DX009 (ip), vehicle: saline with Tween-80 96 % of control

CN(C)c1ccc(N=C2C=CC(=O)C=C2)cc1
inactive: dose: 1.5 mg/kg/injection, schedule: Q01DX009 (ip), vehicle: saline with Tween-80 101 % of control and 104 % of control and 106 % of control | dose: 3.0 mg/kg/injection, schedule: Q01DX009 (ip), vehicle: saline with Tween-80 105 % of control and 106 % of control (2×) | dose: 6.0 mg/kg/injection, schedule: Q01DX009 (ip), vehicle: saline with Tween-80 113 % of control (2×) and 120 % of control | dose: 12.0 mg/kg/injection, schedule: Q01DX009 (ip), vehicle: saline with Tween-80 100 % of control and 103 % of control | dose: 25.0 mg/kg/injection, schedule: Q01DX009 (ip), vehicle: saline with Tween-80 102 % of control

CN(C)c1ccc(C(=C2C=CC(=[N+](C)C)C=C2)c2ccccc2Cl)cc1
inactive: dose: 1.56 mg/kg/injection, schedule: Q01DX005 (ip), vehicle: saline with Tween-80 117 % of control | dose: 3.13 mg/kg/injection, schedule: Q01DX005 (ip), vehicle: saline with Tween-80 117 % of control and 121 % of control | dose: 6.25 mg/kg/injection, schedule: Q01DX005 (ip), vehicle: saline with Tween-80 118 % of control (2×) and 121 % of control | dose: 12.5 mg/kg/injection, schedule: Q01DX005 (ip), vehicle: saline with Tween-80 112 % of control and 88 % of control

O=C(O)/C=C/CCCCCCO
inactive: dose: 100.0 mg/kg/injection, schedule: Q04DX002 (ip), vehicle: saline + alcohol 91 % of control | dose: 200.0 mg/kg/injection, schedule: Q04DX002 (ip), vehicle: saline + alcohol 100 % of control | dose: 400.0 mg/kg/injection, schedule: Q04DX002 (ip), vehicle: saline + alcohol 106 % of control

Cc1ccc([P+](CCN2C(=O)c3ccccc3C2=O)(c2ccc(C)cc2)c2ccc(C)cc2)cc1
inactive: dose: 0.39 mg/kg/injection, schedule: Q01DX009 (ip), vehicle: water 111 % of control | dose: 0.78 mg/kg/injection, schedule: Q01DX009 (ip), vehicle: water 121 % of control | dose: 1.56 mg/kg/injection, schedule: Q01DX009 (ip), vehicle: water 115 % of control | dose: 3.13 mg/kg/injection, schedule: Q01DX009 (ip), vehicle: water 121 % of control

O=C(Oc1ccccc1)N1CCOCC1
inactive: dose: 50.0 mg/kg/injection, schedule: Q01DX009 (ip), vehicle: other 96 % of control | dose: 100.0 mg/kg/injection, schedule: Q01DX009 (ip), vehicle: other 102 % of control | dose: 200.0 mg/kg/injection, schedule: Q01DX009 (ip), vehicle: other 112 % of control

CC(N)C(=O)NC(C)P(=O)(O)O (stereo not given)
inactive: dose: 50.0 mg/kg/injection, schedule: Q01DX009 (ip), vehicle: saline with Tween-80 102 % of control | dose: 100.0 mg/kg/injection, schedule: Q01DX009 (ip), vehicle: saline with Tween-80 101 % of control | dose: 200.0 mg/kg/injection, schedule: Q01DX009 (ip), vehicle: saline with Tween-80 101 % of control

CC1(c2ccco2)NC(=O)N(Cl)C1=O (stereo not given)
inactive: dose: 100.0 mg/kg/injection, schedule: Q04DX003 (ip), vehicle: saline 104 % of control | dose: 200.0 mg/kg/injection, schedule: Q04DX003 (ip), vehicle: saline 90 % of control

CCOC1=N[C@H]2CCCC[C@H]2N1
inactive: dose: 15.0 mg/kg/injection, schedule: Q01DX005 (ip), vehicle: saline 98 % of control | dose: 30.0 mg/kg/injection, schedule: Q01DX005 (ip), vehicle: saline 96 % of control | dose: 60.0 mg/kg/injection, schedule: Q01DX005 (ip), vehicle: saline 102 % of control and 98 % of control

COc1cc(-c2cc(O)c(-c3ccc4ccccc4n3)c(=O)[nH]2)cc(OC)c1OC
inactive: dose: 0.93 mg/kg/injection, schedule: Q01DX005 (ip), vehicle: saline with Tween-80 102 % of control | dose: 1.88 mg/kg/injection, schedule: Q01DX005 (ip), vehicle: saline with Tween-80 98 % of control | dose: 3.75 mg/kg/injection, schedule: Q01DX005 (ip), vehicle: saline with Tween-80 96 % of control | [6] 87 % of control | [7] 90 % of control

COC1OC2COC(c3ccccc3)OC2C(N)C1O (stereo not given)
inactive: dose: 50.0 mg/kg/injection, schedule: Q01DX005 (ip), vehicle: saline with Tween-80 106 % of control | dose: 100.0 mg/kg/injection, schedule: Q01DX005 (ip), vehicle: saline with Tween-80 101 % of control | dose: 200.0 mg/kg/injection, schedule: Q01DX005 (ip), vehicle: saline with Tween-80 104 % of control

CCCCCn1cc[nH]c1=S
inactive: dose: 12.5 mg/kg/injection, schedule: Q01DX005 (ip), vehicle: Klucel (hydroxypropylcellulose) (HPC) 101 % of control | dose: 25.0 mg/kg/injection, schedule: Q01DX005 (ip), vehicle: Klucel (hydroxypropylcellulose) (HPC) 104 % of control | [2] 100 % of control and 101 % of control | [3] 104 % of control | [4] 110 % of control

CC(C)(C)c1cc(C(=O)O)c(SSc2ccccc2)c(C(=O)O)c1
inactive: [1] 105 % of control
